Test results from US20100034778A1, “STEM CELLS” (DUKE UNIVERSITY, priority 2005, published 2010).
Where “and” joins values, the source holds several entries; their conditions need not be identical. Equal values may be shown once. Entries after “also recorded” stand apart in the source; their conditions may differ.

Experiments:
[1] = test system: CB CD34^+CD38^−lin^− cells; experiment: Culture of human CB CD34+CD38-lin- cells with TSF plus retinoid/rexinoid ligand (immunophenotype, CFC content); format: cell-based
Experimental: (§1) Isolation of Human BM and CB CD34^+CD38^−lin− cells
(§2) Whole BM and CB units were obtained from the Duke University Stem Cell Laboratory within 48 hours of collection. Volume reduction of CB units was accomplished by 10 minute incubation at room temperature with 1% Hetastarch (Abbott Laboratories, North Chicago, Ill.), followed by centrifugation at 700 rpm for 10 minutes to facilitate component separation. The buffy coat was collected and washed twice with Dulbecco's phosphate buffered saline (PBS; Invitrogen, Carlsbad, Calif.) containing 10% heat-inactivated fetal bovine serum (FBS; Hyclone, Logan, Utah), 100 U/ml penicillin, and […] streptomycin (1% pcn/strp; Invitrogen). Cell pellets were resuspended in PBS with 10% FBS and 1% pcn/strp and overlaid onto Lymphoprep (Axis-Shield, Olso, Norway) and centrifuged at 1500 rpm for 30 minutes to isolate the mononuclear cell (MNC) fraction. MNCs were collected and washed twice before proceeding to lineage depletion.
(§3) Briefly, CB or BM MNCs were resuspended at 5−8×10^7 cells/ml in PBS with 10% FBS and 1% pcn/strp and incubated with 100 μl/ml antibody cocktail for 30 minutes followed by incubation with 60 μl/ml magnetic colloid for 30 minutes. Cells were then magnetically depleted on a pump fed negative selection column (Stem Cell Technologies) using the manufacturer's recommended procedure. Lin-cells were washed twice, quantified by hemacytometer count and cryopreserved in 90% FBS and 10% dimethylsulfoxide (DMSO; Sigma-Aldrich, St. Louis, Mo.) or utilized directly for further experiments.
(§4) Lin^− CB or BM cells were thawed, washed once in Iscove's Modified Dulbecco's Medium (IMDM; Invitrogen) containing 10% FBS and 1% pcn/strp, counted, and resuspended at 5−10×10^7/ml. Immunofluorescent staining was conducted using anti-human CD34-fluorescein isothiocyanate (FITC) and anti-human CD38-phycoerythrin (PE) monoclonal antibodies (Becton Dickinson, San Jose, Calif.), for 30 minutes on ice. Stained cells were washed twice and resuspended at 1×10^7 cells/ml in IMDM with 10% FBS and 1% pcn/strp. Analysis and sterile cell sorting was conducted using a FACSvantage flow cytometer (Becton Dickinson) to isolate CD34^+CD38^− and CD34^+CD38^+ subsets. The CD34^+CD38^− sort gate was set to collect only those events falling in the lowest 5% of PE fluorescence within the total CD34^+ population, to ensure acquisition of highly purified CD34^+CD38^− cells.
(§5) Analysis of In Vitro Hematopoietic Activity of Human CD34^+CD38^−lin^− Cells Following Culture with LGD1506
(§6) Primary human BM and CB CD34^+CD38^−lin cells were placed in culture with 20 ng/mL thrombopoietin, 100 ng/mL stem cell factor (SCF), and flt-3 ligand (TSF), a cytokine combination previously found to induce human stem and progenitor cell proliferation and differentiation in vitro (Chute et al, Blood 105:576-583 (2005), Chute et al, Stem ells 22:202-215 (2004)).
In order to assess the hematopoietic effects of retinoid agonists on purified human HSCs, BM and CB CD34^+CD38^−lin^− cells were placed in culture with TSP with and without 1 μM all-trans retinoic acid (ATRA), an agonist of RAR. […] The hematopoietic activities of LGD0815, an RARA agonist, LGD0268, an RXR agonist, and LGD1506, an RXR selective modulator, in combination with TSF, were evaluated via measurement of total cell expansion, immunophenotype analysis, CFC content and morphologic analysis of cultured progeny versus day 0 (input) BM or CB CD34^+CD38^−lin^− cells.

[2] = test system: BM CD34^+CD38^−lin^− cells; experiment: Culture of human BM CD34+CD38-lin- cells with TSF plus retinoid/rexinoid ligand (total cell expansion, immunophenotype, CFC content, morphology); format: cell-based
Experimental: as §1, §2, §3, §4, §5, §6
In order to assess the hematopoietic effects of retinoid agonists on purified human HSCs, BM and CB CD34^+CD38^−lin^− cells were placed in culture with TSP with and without 1 μM all-trans retinoic acid (ATRA), an agonist of RAR. Total cell expansion, immunophenotype, colony forming cell (CFC) content and morphologic analysis was performed on ATRA-treated progeny and compared with both day 0 CD34^+CD38^−lin^− populations and the progeny of TSF alone to assess the impact of retinoid agonism on the differentiation of human HSCs. This analysis was extended further by cultivating BM and CB CD34^+CD38^−lin^− cells with TSF coupled with ligands with specific affinity for either RAR or RXR (provided courtesy of Ligand Pharmaceuticals, Inc., San Diego, Calif.). The hematopoietic activities of LGD0815, an RARA agonist, LGD0268, an RXR agonist, and LGD1506, an RXR selective modulator, in combination with TSF, were evaluated via measurement of total cell expansion, immunophenotype analysis, CFC content and morphologic analysis of cultured progeny versus day 0 (input) BM or CB CD34^+CD38^−lin^− cells.

RXR:LXR heterodimer = details: unpublished data of M. Leibowitz et al.; cited from earlier work
human BM SRCs = experiment: In vivo long-term repopulating assay in NOD/SCID mice (SRC assay) of cultured progeny
Experimental: In Vivo Long-Term Repopulating Assays in NOD/SCID Mice
NOD/SCID mice (Schulz et al, J. Immunol. 154:180-191 (1995)) were transplanted with either day 0 FACS-sorted BM or CB CD34^+CD38^− lin^− HSC-enriched cells or the progeny of CD34^+CD38^−lin− cells cultured with TSF alone or TSF supplemented with 1 μM LGD506, an RXR-specific ligand. Cells were transplanted via tail vein injection after irradiating NOD/SCID mice with 300 cGy using an X-ray irradiator as previously described (Chute et al, Blood 100:4433-4439 (2002), Chute et al, Blood 105:576-583 (2005)). Day 0 CD34^+CD38^−lin− HSCs and their progeny were co-transplanted with 2×10^4 […] accessory cells to facilitate engraftment as previously described (Bonnet et al, Bone Marrow Transpl. 23:203-209 (1999), Bhatia et al, Proc. Natl. Acad. Sci. USA 94:5320-5325 (1997)).
All mice in each group were sacrificed at week 8 and marrow samples were obtained by flushing their femurs with IMDM at 4° C. Red cells were lysed using red cell lysis buffer (Sigma-Aldrich) and flow cytometric analysis of human hematopoietic engraftment was performed as previously described using commercially available mAbs against human leukocyte differentiation antigens to identify engrafted human leukocytes and discriminate their hematopoietic lineages (Chute et al, Blood 100:4433-4439 (2002), Chute et al, Blood 105:576-583 (2005), Trischmann et al, J. Hematother. 2:305-313 (1993)).
Statistical Analysis and SRC Frequency Measurements
Comparisons of data from in vitro experiments were made using the Student's t test. For purposes of the limiting dilution analysis, a transplanted mouse was scored as positively engrafted if ≧0.1% of the marrow cells expressed human-CD45 via high resolution FACS analysis. This criteria is consistent with previously published criteria for human cell repopulation in NOD/SCID mice (Chute et al, Blood 100:4433-4439 (2002), Dorrell et al, Blood 95:102-110 (2000)). SRC frequency in each cell source was calculated using the maximum likelihood estimator as described previously by Taswell (J. Immunol. 126:1614-1619 (1981), Wang et al, Blood 89:3919-3924 (1997), Ueda et al, J. Clin. Invest. 105:1013-1021 (2000)). Confidence intervals for the frequencies were calculated using the profile likelihood method, and the likelihood ratio test was used to confirm the fit of the model.

RXR:RAR heterodimer = details: unpublished data of M. Leibowitz et al.; cited from earlier work
HOXB4 = experiment: Quantitative real-time PCR of HOXB4 expression in cultured CB CD34+CD38-lin- cells; format: cell-based, human
Excerpt: Real Time PCR Analysis of LGD506-Treated HSCs
Extraction of total RNA from Day 0 and Day 7 CB CD34^+ populations was done using a RNeasy Mini spin column (Qiagen, Valencia, Calif.) according to the manufacturer's recommended protocol. […] Briefly, total RNA was isolated from CD34^+CD38^−lin^− cells according to the manufacturer's instructions for the RNaqueous®—Micro (Ambion) and reversed-transcribed to cDNA using iScript™ cDNA synthesis Kit (Biorad, Hercules, Calif.). cDNA concentrations were measured with a fluorometer (Turner Designs, Sunnyvale, Calif.) using RiboGreen reagent (Invitrogen). PCR amplification reactions were performed in 13 μl and contained equal amounts of cDNAs, 6.5 μL of iQ SYBR green supermix (Bio-Rad), 0.2 μM of each forward and reverse gene-specific primers for genes of interest and the normalization gene 36B4. PCR was performed on an iCycler (Bio-Rad) according to the following cycling conditions: an initial cycle of 15 min at 95° C.; 45 cycles of 45 sec at 95° C., 15 sec at 55° C., and 15 sec at 72° C.; followed by a melt-curve analysis cycle with steps of 10 sec each at 0.5° C. increments from 60 to 95° C. Amplification rates were visualized and analyzed on ICYCLER IQ optical system software version 3.0 (Bio-Rad). Gene-specific primers were purchased from Integrated DNA Technologies (Coralville, Iowa).

Structure (SMILES): CC1=C(/C=C/C(C)=C/C=C/C(C)=C/C(=O)O)C(C)(C)CCC1 [ATRA, all-trans retinoic acid]
- differentiation of human HSCs during culture ([1]; ATRA with TSF, by day 7): enhanced the differentiation; also recorded: induced pronounced differentiation and myelbid maturation
- number of CFCs ([1]; CB cells, ATRA+TSF versus TSF alone): signficantly less CFCs; also recorded: decreased
- percentage of CD34+ cells ([1]; CB cells, TSF+1 μM ATRA, 7 days, versus TSF alone): marked loss; also recorded: declined relative to TSF alone
- CD34+CD38- cells remaining in culture ([1]; CB cells, TSF+1 μM ATRA, day 7): marked loss; also recorded: no CD34^+CD38^− cells remained
- percentage of CD34+CD38- cells at day 7 ([2]; BM cells, TSF+1 μM ligand, day 7): caused a decline

Structure (SMILES): C/C(=C/C=C/C(C)=C/C(=O)O)c1cc(C(C)(C)C)cc(C(C)(C)C)c1OCC(F)F [LGD1506]
- maintenance of CD34+CD38- cells in CB cultures ([1]; CB cells, TSF+LGD1506): supported the maintenance
- increase in BM CD34+CD38- cell numbers compared to day 0 (input) ([2]; BM cells, LGD1506+TSF): 4 fold
- total cell expansion ([2]; BM cells, LGD1506+TSF, day 7): 13 fold
- reduction in CFC production during culture compared to TSF alone ([2]; LGD1506+TSF culture (FIG. 2D)): 50%
- morphologic examination of cultured progeny ([2]; LGD1506+TSF cultures, data not shown): predominance of immature blasts
- differentiation of human HSCs during culture ([2]; LGD1506 with TSF): inhibited HSC differentiation
- CFCs less compared to TSF-cultured cells ([2]; progeny of LGD1506+TSF cultures): 2 fold
- effect on RXR:LXR heterodimer (RXR:LXR heterodimer): inhibit
- huCD45+ cell repopulation of transplanted mice (human BM SRCs; cell dose 1−2.5×10^3, progeny of TSF+LGD1506 culture): no huCD45+ cell repopulation was detected
- multilineage differentiation in engrafted mice (human BM SRCs; mice engrafted with LGD1506-treated cells): normal multilineage differentiation was evident
- percent of transplanted mice with human repopulation (human BM SRCs; progeny of 5×10^3 BM CD34+CD38-lin- cells, LGD1506+TSF): 50-80% and 80%
- mice showing huCD45+ cell repopulation (human BM SRCs; progeny of 5×10^3 BM CD34+CD38-lin- cells, LGD1506+TSF, week 8): 4 of 5
- mean huCD45+ cell repopulation (human BM SRCs; progeny of 5×10^3 BM cells, LGD1506+TSF): 0.2%
- effect on RXR:RAR heterodimer (RXR:RAR heterodimer): neutral or inhibitory effects
- HOXB4 expression over time (HOXB4; LGD1506+TSF versus TSF alone (FIG. 3A)): prevented the downregulation
- HOXB4 expression, percent of input (day 0) levels (HOXB4; LGD1506 added to TSF): 80% and 70%
